The text below walks through data of US20020151591A1, “Combination use of acetylcholinesterase inhibitors and GABAa inverse agonists for the treatment of cognitive disorders” (priority 2000, published 2002).

The subject of the experiment is scopolamine-induced retention deficit in male Sprague Dawley rats. Briefly: Scopolamine-induced memory deficit in the spatial water maze task. It counts as in vivo, rat. The conditions noted are these: IV 5 minutes prior to scopolamine 0.125 mg/kg IP; sub-efficacious doses; retention tested one day after training; Fisher LSD p<0.05 vs PEG/scopolamine. As for the experimental part:
Subjects: Animals used in these studies were naive male Sprague Dawley rats (SASCO St. Louis) weighing between 200-250 grams. Animals were housed in groups of three in a temperature (22° C.[…]) and humidity (40-70% relative humidity) controlled vivarium with a 12-hour light/dark cycle. Animals had ad lib access to food and water.
Drugs: Aricept and said compound of Formula I were each dissolved in 50% polyethylene glycol (PEG), and scopolamine HCI (Sigma) was dissolved in 0.9% saline. Aricept and said compound of Formula I (alone or in combination) or 50% PEG was administered intravenously (IV) 5 minutes prior to scopolamine (0.125 mg/kg) or saline given intraperitoneally (IP). Training commenced 15 minutes after the IP injection. […]
Procedure: An animal was initially placed on the platform in the tank for 20 seconds. […] For each trial during acquisition and retention, a computerized video tracking system recorded the latency (sec) to reach the submerged platform the total distance traveled (m) in the water maze, the number of zone (quadrant) transitions made, and the swim speed of the animal.
Data Analysis: A one-way ANOVA was conducted on the latency to locate the platform during retention testing. Tests for significant differences between individual treatment groups were assessed using a Fisher LSD test (p<0.05).

For `COc1cc2c(cc1OC)C(=O)C(CC1CCN(Cc3ccccc3)CC1)C2` (stereo not shown) [Aricept, donepezil], the “attenuation of scopolamine-induced retention deficit (latency to locate the platform during retention testing)” value is listed as “did not significantly attenuate”.
